Laboratory results as given in patent US4311700A, “Pyrimidobenzodiazepinones, their use and medicaments containing them” (priority 1979, dated 1982).

Legend:
Shay rats = experiment: Antiulcerogenic action (protective action on the stomach) in Shay rats, pylorus ligature plus acetylsalicylic acid; format: in vivo, rat; conditions: for ED50: Rattus norvegicus, po, p.o. 1 hour before pylorus ligature, dose reducing ulcer index by 50% vs control, read-out: Protective action on the stomach ED50 administered perorally to rats; for TQ LD50/ED50 (therapeutic quotient): LD50 i.v. mice / ED50 p.o. rats
Experimental: The effect of the compounds according to the invention on the formation, in rats, of gastric ulcers provoked by a pylorus ligature and 100 mg/kg of acetylsalicyclic acid, (administered orally) is shown in table II.
ED50 = the dose which reduces the ulcer index for the group treated
by 50% compared with the control group
The anti-ulcerogenic action is tested by a method using the so-caled Shay rats:
(§1) Ulcers are provoked in rats which have been starved for 24 hours (female rats, 180 to 200 g, 4 animals in a cage with a high grille) by means of a pylorus ligature (under anaesthesia with diethyl ether) and oral administration of 100 mg/10 ml/kg of acetylsalicyclic acid. The substances to be tested are administered orally (10 ml/kg) 1 hour before the pylorus ligature. The closure of the wound is effected by means of Michel's clips. The animals are killed 4 hours afterwards under ether anaesthesia by dislocating the atlas, and the stomach is cut out. The stomach is opened longitudinally and is fixed on a cork slab, the quantity of gastric juice secreted (volume) and the hydrochloric acid content having been determined beforehand; the number and size (= diameter) of ulcers present are determined by means of a stereomicroscope at a 10-fold magnification. The product of the degree of severity (in accordance with the following rating scale) and the number of the ulcers is used as an individual ulcer index.
ulcer diameter 0.1-1.4 mm
The reduction in the average ulcer index in each group treated compared with that of the control group (=100%) is used as a measure of the anti-ulcerogenic effect. The ED50 indicates the dose which reduces the average ulcer index by 50%.

stomach secretion = experiment: Inhibition of stomach secretion (volume and hydrochloric acid) in rats; format: in vivo, rat; conditions: 4 hours after administration of the antiulcerogenic ED50
Experimental: *% inhibition = inhibition (in %) of stomach secretion 4 hours after
administration of the antiulcerogenic ED50
as §1

[1] = Determination of toxicity, intravenous, mice; conditions: mouse, in vivo, i.v., female NMRI mice, 7 days observation, read-out: Toxicity LD50 administered intravenously to mice
Experimental: LD50 = the dose at which 50% of the animals die
The toxicity investigations are carried out on female NMRI mice (body weight 22 to 26 g). The animals (5 animals per dose) receive feed and water ad lib. Various doses of the substances are administered intravenously (duration of injection 1 minute). The observation period is 7 days. The LD50 (the dose at which 50% of the animals die) is determined by means of a linear regression.

Row | SMILES | inhibitory effect (anti-ulcerogenic action) (Shay rats; 30 mg/kg, p.o., rats) | ED50 (Shay rats) [mg/kg] | % inhibition of stomach secretion in rats, hydrochloric acid (stomach secretion) [%] | % inhibition of stomach secretion in rats, volume (stomach secretion) [%] | TQ LD50/ED50 (therapeutic quotient) (Shay rats) | anti-ulcerogenic action at high dose (Shay rats; even at 300 mg/kg, rats) | dose/action curve (dose dependence of the action) (Shay rats; rats, p.o.) | LD50 at 168 h [1] [mg/kg]
1 | CN(C)CCN(C)CC(=O)N1c2ccccc2N(C)C(=O)c2cnc(-c3ccccc3)nc21 [Compound 5, 11-[N-(2-dimethylaminoethyl)-N-methylamino]acetyl-6-methyl-2-phenyl-5,6-dihydropyrimido[4,5-b][1,5]benzodiazepin-5-one] | up to 100% | < 10 | – | – | – | – | – | –
2 | CC1(C)[C@@H](OC(=O)CCC(=O)O)CC[C@]2(C)[C@H]3C(=O)C=C4[C@@H]5C[C@@](C)(C(=O)O)CC[C@]5(C)CC[C@@]4(C)[C@]3(C)CC[C@@H]12 [Compound 1, Carbenoxolone, reference compound] | – | ~70 | 4 | 7 | ~ 4.1 | not possible to achieve any substantial increase in the anti-ulcerogenic action | the dose/action curve then flattens out very considerably | 290
3 | CN1CCN(CC(=O)N2c3ccccc3N(C)C(=O)c3cnc(-c4ccccc4)nc32)CC1 [Compound 3, 6-Methyl-11-[(4-methyl-1-piperazinyl)acetyl]-2-phenyl-5,6-dihydropyrimido[4,5-b][1,5]benzodiazepin-5-one] | – | 9 | – | 7 | 10.5 | – | – | 95
4 | CN1CCN(CC(=O)N2c3ccccc3NC(=O)c3cncnc32)CC1 [Compound 2, 11-[(4-Methyl-1-piperazinyl)acetyl]-5,6-dihydropyrimido[4,5-b][1,5]benzodiazepin-5-one] | – | 12 | 5 | 10 | 15 | – | – | 180
5 | CN1C(=O)c2cnc(-c3ccccc3)nc2N(C(=O)CN2CCCCC2)c2ccccc21 [Compound 4, 6-Methyl-2-phenyl-11-piperidinoacetyl-5,6-dihydropyrimido[4,5-b][1,5]benzodiazepin-5-one] | – | ~8 | 22 | 32 | ~ 20 | – | – | 160
